According to patent US10517889B2, “Modulators of SMAD7 expression” (Ionis Pharmaceuticals, Inc., priority 2017, dated 2019):
Strand notation (5' to 3'): a small letter for the sugar, then the base; units joined by * are phosphorothioate-linked, units joined directly phosphodiester-linked; [ ] holds rarer units or linkages, { } end groups; capitals alone tell only the bases. k = constrained ethyl (cEt); [5mC] = 5-methylcytosine; d = 2'-deoxy (DNA)

System: human SMAD7 mRNA
Test: Antisense inhibition of human SMAD7 mRNA expression in Hep3B cells by 3-10-3 cEt gapmers, 10,000 nM, electroporation (Example 2)
Assay type: cell-based
Details: approximately 24 hours
Experimental: Antisense oligonucleotides were designed to target human SMAD7 mRNA and were tested for their effects on SMAD7 mRNA expression in vitro. The antisense oligonucleotides were tested in a series of experiments that had similar culture conditions, as described below. ION 771576, described in the studies above and which is a 5-10-5 MOE gapmer, was also included in these assays. Cultured Hep3B cells at a density of 20,000 cells per well were transfected using electroporation with 10,000 nM antisense oligonucleotide. After a treatment period of approximately 24 hours, RNA was isolated from the cells and SMAD7 mRNA levels were measured by quantitative real-time PCR. Primer probe set RTS5062 was used to measure human SMAD7 mRNA levels. SMAD7 mRNA levels were adjusted according to total RNA content, as measured by RIBOGREEN®. Results are presented as percent inhibition of SMAD7 mRNA expression, relative to untreated control cells.
The newly designed chimeric antisense oligonucleotides in the Tables below were designed as 3-10-3 cEt gapmers. The gapmers are 16 nucleosides in length, wherein the central gap segment comprises often 2′-deoxynucleosides and is flanked by wing segments on the 5′ direction and the 3′ direction comprising three nucleosides each. Each nucleoside in the 5′ wing segment and each nucleoside in the 3′ wing segment has a cEt sugar modification. The internucleoside linkages throughout each gapmer are phosphorothioate (P═S) linkages. All cytosine residues throughout each gapmer are 5-methylcytosines.
“Start site” indicates the 5′-most nucleoside to which the gapmer is targeted in the human gene sequence. “Stop site” indicates the 3′-most nucleoside to which the gapmer is targeted human gene sequence. […] Some of the oligonucleotides presented were complementary to SMAD7 mRNA sequences RefSeqNo. NM_001190821.1 (designated herein as SEQ ID NO: 3) or RefSeqNo. NM_001190822.1 (designated herein as SEQ ID NO: 4), and are presented in a separate table shown below.

[1] = Hep3B cells, electroporation with 10,000 nM antisense oligonucleotide, primer probe set RTS5062, relative to untreated control cells
[2] = SMAD7 mRNA, Hep3B cells, 10,000 nM antisense oligonucleotide, electroporation, primer probe set RTS5062, relative to untreated control cells
[3] = Hep3B cells, electroporation with 10,000 nM antisense oligonucleotide, SMAD7 mRNA by RT-PCR (RTS5062), relative to untreated control cells
[4] = Hep3B cells, 10,000 nM antisense oligonucleotide, electroporation, RT-PCR primer probe set RTS5062, relative to untreated control cells

772532 (antisense k[5mC]*kA*kG*d[5mC]*dA*dG*dG*d[5mC]*dG*d[5mC]*dA*dG*dG*k[5mC]*kG*kA) [compound 772532]
% inhibition of SMAD7 mRNA expression [1]: 21%

772533 (antisense kT*kG*kA*dA*dG*dA*dA*dG*dT*d[5mC]*dG*dG*dG*k[5mC]*kG*k[5mC]) [compound 772533]
% inhibition of SMAD7 mRNA expression [1]: 31%

772535 (antisense k[5mC]*k[5mC]*kG*d[5mC]*dA*d[5mC]*dA*d[5mC]*d[5mC]*dA*dT*dG*dA*kA*kG*kA) [compound 772535]
% Inhibition [2]: 29%

772536 (antisense kG*kA*k[5mC]*d[5mC]*dT*d[5mC]*d[5mC]*dG*d[5mC]*dA*d[5mC]*dA*d[5mC]*k[5mC]*kA*kT) [compound 772536]
% Inhibition [3]: 22%

772540 (antisense kA*kG*kG*d[5mC]*dG*dA*dG*dG*dA*dG*dA*dA*dA*kA*kG*kT) [compound 772540]
% Inhibition [2]: 10%

772543 (antisense kG*kG*kA*d[5mC]*dG*dA*dG*d[5mC]*dG*d[5mC]*dA*dG*dA*kT*k[5mC]*kG) [compound 772543]
% inhibition of SMAD7 mRNA expression [1]: 58%

772551 (antisense kT*kT*k[5mC]*dA*dG*dA*dT*d[5mC]*d[5mC]*dG*d[5mC]*d[5mC]*dT*k[5mC]*kG*kG) [compound 772551]
% Inhibition [2]: 39%

772552 (antisense kG*k[5mC]*kG*d[5mC]*d[5mC]*dT*dT*d[5mC]*dA*dG*dA*dT*d[5mC]*k[5mC]*kG*k[5mC]) [compound 772552]
% Inhibition [2]: 34%

772555 (antisense kA*kG*kG*d[5mC]*dA*d[5mC]*dG*d[5mC]*dG*dG*dT*dG*d[5mC]*kG*k[5mC]*kG) [compound 772555]
% inhibition of SMAD7 mRNA expression [1]: 23%

772556 (antisense kA*kG*k[5mC]*dA*dG*dG*dA*dG*dG*d[5mC]*dA*d[5mC]*dG*k[5mC]*kG*kG) [compound 772556]
% Inhibition [3]: 43%

772557 (antisense kG*kT*k[5mC]*d[5mC]*dA*dG*dG*d[5mC]*dG*dG*d[5mC]*d[5mC]*dG*kG*kG*k[5mC]) [compound 772557]
% Inhibition [3]: 2%

772559 (antisense kA*kG*k[5mC]*dG*dA*dG*dT*dA*dG*dG*dA*d[5mC]*dG*kA*kG*kG) [compound 772559]
% inhibition of SMAD7 mRNA expression [1]: 14%

772563 (antisense kG*kG*k[5mC]*d[5mC]*dA*d[5mC]*d[5mC]*dT*dG*dA*dA*d[5mC]*dA*k[5mC]*kT*kT) [compound 772563]
% Inhibition [3]: 0%

772565 (antisense kA*kA*kT*dG*d[5mC]*d[5mC]*dT*dG*dA*dG*dA*dT*d[5mC]*k[5mC]*kG*kG) [compound 772565]
% Inhibition [3]: 64%

772567 (antisense kG*kA*k[5mC]*dT*dT*d[5mC]*d[5mC]*dG*dA*dG*dG*dA*dA*kT*kG*k[5mC]) [compound 772567]
% Inhibition [2]: 58%

772571 (antisense k[5mC]*k[5mC]*kG*dT*dA*dA*dG*dA*dT*dT*d[5mC]*dA*d[5mC]*kA*kG*k[5mC]) [compound 772571]
% Inhibition [2]: 50%

772572 (antisense kA*kT*k[5mC]*dT*dT*d[5mC]*d[5mC]*d[5mC]*dG*dT*dA*dA*dG*kA*kT*kT) [compound 772572]
% Inhibition [3]: 0%

772573 (antisense kA*kG*k[5mC]*dA*d[5mC]*dA*d[5mC]*d[5mC]*dA*dG*d[5mC]*dT*d[5mC]*kG*kG*kG) [compound 772573]
% Inhibition [3]: 57%

772582 (k[5mC]*kT*kG*dA*dA*dA*dG*d[5mC]*d[5mC]*d[5mC]*d[5mC]*d[5mC]*d[5mC]*kA*kG*kG; antisense) [compound 772582]
% Inhibition [2]: 34%

772584 (kG*kA*kA*dG*dT*dT*dG*dG*dG*dA*dA*dT*d[5mC]*kT*kG*kA; antisense) [compound 772584]
% Inhibition [2]: 4%

772587 (kA*kT*k[5mC]*d[5mC]*d[5mC]*d[5mC]*dA*dG*dG*d[5mC]*dT*d[5mC]*d[5mC]*kA*kG*kA; antisense) [compound 772587]
% Inhibition [3]: 39%

772589 (kA*k[5mC]*k[5mC]*dG*dA*dT*d[5mC]*d[5mC]*d[5mC]*d[5mC]*dA*dG*dG*k[5mC]*kT*k[5mC]; antisense) [compound 772589]
% Inhibition [2]: 9%

772590 (kT*kG*kT*dG*dA*d[5mC]*d[5mC]*dG*dA*dT*d[5mC]*d[5mC]*d[5mC]*k[5mC]*kA*kG; antisense) [compound 772590]
% Inhibition [3]: 37%

772591 (kA*kG*kT*dG*dT*dG*dA*d[5mC]*d[5mC]*dG*dA*dT*d[5mC]*k[5mC]*k[5mC]*k[5mC]; antisense) [compound 772591]
% Inhibition [2]: 60%

772592 (k[5mC]*kA*k[5mC]*d[5mC]*dA*dG*dT*dG*dT*dG*dA*d[5mC]*d[5mC]*kG*kA*kT; antisense) [compound 772592]
% Inhibition [2]: 24%

772593 (kA*k[5mC]*kG*d[5mC]*dA*d[5mC]*d[5mC]*dA*dG*dT*dG*dT*dG*kA*k[5mC]*k[5mC]; antisense) [compound 772593]
% Inhibition [2]: 42%

772595 (kA*k[5mC]*k[5mC]*dA*d[5mC]*dG*d[5mC]*dA*d[5mC]*d[5mC]*dA*dG*dT*kG*kT*kG; antisense) [compound 772595]
% Inhibition [2]: 2%

772597 (k[5mC]*kA*kG*dT*dA*dT*dG*d[5mC]*d[5mC]*dA*d[5mC]*d[5mC]*dA*k[5mC]*kG*k[5mC]; antisense) [compound 772597]
% Inhibition [4]: 0%

772604 (kA*kT*kT*d[5mC]*d[5mC]*d[5mC]*d[5mC]*dT*dG*dA*dG*dG*dT*kA*kG*kA; antisense) [compound 772604]
% Inhibition [2]: 48%

772606 (kA*kG*k[5mC]*d[5mC]*dA*dT*dT*d[5mC]*d[5mC]*d[5mC]*d[5mC]*dT*dG*kA*kG*kG; antisense) [compound 772606]
% Inhibition [3]: 41%

772610 (kG*kG*k[5mC]*dA*dA*dA*dA*dG*d[5mC]*d[5mC]*dA*dT*dT*k[5mC]*k[5mC]*k[5mC]; antisense) [compound 772610]
% Inhibition [3]: 34%

772611 (kT*k[5mC]*k[5mC]*dG*dA*dG*dG*d[5mC]*dA*dA*dA*dA*dG*k[5mC]*k[5mC]*kA; antisense) [compound 772611]
% Inhibition [2]: 14%

772613 (kA*kT*kT*dG*dA*dG*d[5mC]*dT*dG*dT*d[5mC]*d[5mC]*dG*kA*kG*kG; antisense) [compound 772613]
% Inhibition [4]: 7%

772614 (kG*kA*k[5mC]*dT*d[5mC]*dT*dT*dG*dT*dT*dG*dT*d[5mC]*k[5mC]*kG*kA; antisense) [compound 772614]
% Inhibition [2]: 43%

772621 (kA*kA*k[5mC]*dT*dG*d[5mC]*dT*dG*d[5mC]*dG*dG*dT*dT*kG*kT*kA; antisense) [compound 772621]
% Inhibition [4]: 38%

772623 (kA*kG*kT*d[5mC]*d[5mC]*dG*dG*dG*dT*dT*dG*dT*d[5mC]*k[5mC]*kA*kG; antisense) [compound 772623]
% Inhibition [2]: 42%

772628 (kG*k[5mC]*k[5mC]*dT*dT*dG*dA*dT*dG*dG*dA*dG*dA*kA*kA*k[5mC]; antisense) [compound 772628]
% Inhibition [4]: 33%

772633 (kG*kG*kT*d[5mC]*dA*dT*dT*dG*dG*dG*d[5mC]*d[5mC]*dG*k[5mC]*kT*kG; antisense) [compound 772633]
% Inhibition [4]: 37%

772635 (kA*kA*kG*d[5mC]*dT*dG*dA*dT*d[5mC]*dT*dG*d[5mC]*dA*k[5mC]*kG*kG; antisense) [compound 772635]
% Inhibition [2]: 43%

772642 (kT*kA*k[5mC]*d[5mC]*dG*dG*d[5mC]*dT*dG*dT*dT*dG*dA*kA*kG*kA; antisense) [compound 772642]
% Inhibition [3]: 0%

772687 (kA*k[5mC]*k[5mC]*dT*dT*dT*dG*dT*dA*dG*dT*dT*dA*kG*kA*kA; antisense) [compound 772687]
% Inhibition [2]: 46%

772689 (kG*kT*kT*d[5mC]*dA*dT*dT*dT*dA*dA*dA*d[5mC]*d[5mC]*kT*kT*kT; antisense) [compound 772689]
% inhibition of SMAD7 mRNA expression [1]: 26%

772692 (kA*kA*kA*dG*d[5mC]*dA*d[5mC]*dT*dA*d[5mC]*dA*dA*dT*kG*k[5mC]*kT; antisense) [compound 772692]
% Inhibition [1]: 19%

772696 (kT*k[5mC]*kT*d[5mC]*dT*d[5mC]*dA*dA*dA*dG*d[5mC]*dA*d[5mC]*kT*kA*k[5mC]; antisense) [compound 772696]
% inhibition of SMAD7 mRNA expression [1]: 56%

772700 (k[5mC]*kT*kT*dT*dA*dA*dT*dA*dA*dA*dT*d[5mC]*dT*k[5mC]*kA*kG; antisense) [compound 772700]
% Inhibition [1]: 24%
